Laboratory results: patent US12152038B2, “Vasopressin receptor antagonists and products and methods related thereto” (Neumora Therapeutics, Inc., priority 2017, dated 2024)

Legend:
[1] = molecular target: T1, human Arginine Vasopressin Receptor 1a (AVPR1a) (Homo sapiens, UniProt P37288); test: Vasopressin V1a receptor antagonist assay (FLIPR calcium, CHO-AVPR1a cells); format: cell-based
T1 construct: expressed in transfected cells; host or cells: CHO (CHO-AVPR1a, kept under G418 selection)
Procedure, shortened: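 CHO cells expressing human AVPR1a were loaded with Calcium-6 dye and preincubated with compound for 15 min at 37° C. Cells were then challenged with AVP at its daily-determined EC80, and FLIPR fluorescence was read. Compounds were tested in duplicate as 10-point 1:3 dilutions from a top final concentration of 3 μM.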

[2] = Wild-type MDCK permeability and efflux assay (Papp, efflux ratio); format: in vitro ADME; conditions: dog, pH 7.4, wild-type MDCK cells; for efflux ratio at 1 h, 10 μM: Papp B>A/Papp A>B, read-out: ER WT (Efflux Ratio)
Procedure, shortened: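 Confluent WT or MDR1-MDCK monolayers (3-day culture) dosed with 10 μM compound, 0.1% DMSO, in HBSS/25 mM HEPES pH 7.4, A>B and B>A, 1 h at 37 °C; LC-MS/MS quantitation. Papp from acceptor/donor ratio; efflux ratio = Papp B>A/A>B; EER = ER(MDR1)/ER(WT).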

T1 sequence (P37288 whole entry): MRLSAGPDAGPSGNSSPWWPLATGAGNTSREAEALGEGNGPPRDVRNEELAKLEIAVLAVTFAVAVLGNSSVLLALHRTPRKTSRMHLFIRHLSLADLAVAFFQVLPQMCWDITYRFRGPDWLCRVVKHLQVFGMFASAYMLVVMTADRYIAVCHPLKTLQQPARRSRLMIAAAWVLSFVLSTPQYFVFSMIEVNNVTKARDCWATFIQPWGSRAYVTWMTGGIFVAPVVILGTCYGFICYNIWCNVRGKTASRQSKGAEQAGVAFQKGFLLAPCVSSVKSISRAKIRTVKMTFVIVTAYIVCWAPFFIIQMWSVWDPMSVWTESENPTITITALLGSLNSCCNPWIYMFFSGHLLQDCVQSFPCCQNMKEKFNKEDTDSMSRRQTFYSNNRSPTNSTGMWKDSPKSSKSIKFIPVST

IC50 [1]	Papp A→B at 1 h, 10 μM [2]	efflux ratio at 1 h, 10 μM [2]	Compound
< 100 nM			CCC1COc2cc(Cl)ccc2N1C(=O)N1CC2(C1)CN(c1ccc(F)cn1)C2 (single isomer, unassigned) [1-55-B]
< 100 nM	> 20 ×10⁻⁶ cm/s	< 1	COc1ccc2c(c1)OCC(C)N2C(=O)N1CC2(C1)CN(c1ccc(F)cn1)C2 (single isomer, unassigned) [1-59-B]
< 100 nM			CC1COc2cc(Cl)ccc2N1C(=O)N1CC2(C1)CN(c1ccc(F)cn1)C2 (single isomer, unassigned) [1-73-A]
< 100 nM			CC1COc2cc(Cl)ccc2N1C(=O)N1CC2(C1)CN(c1ccc(F)cn1)C2 (single isomer, unassigned) [1-73-B]
< 100 nM			Cc1cccc(N2CC3(CN(C(=O)N4CCOc5cc(Cl)ccc54)C3)C2)n1 [1-3]
< 100 nM	> 20 ×10⁻⁶ cm/s	< 1	O=C(N1CC2(C1)CN(c1cnc(F)cn1)C2)N1CCOc2cc(Cl)ccc21 [1-18]
< 100 nM			Cc1cnc(N2CC3(CN(C(=O)N4CCOc5cc(Cl)ccc54)C3)C2)cn1 [1-20]
< 100 nM	> 20 ×10⁻⁶ cm/s	< 1	Cc1cncc(N2CC3(CN(C(=O)N4CCOc5cc(Cl)ccc54)C3)C2)n1 [1-22]
< 100 nM			Cc1nc(N2CC3(CN(C(=O)N4CCOc5cc(Cl)ccc54)C3)C2)ccc1F [1-30]
< 100 nM			N#Cc1cccc(N2CC3(CN(C(=O)N4CCOc5cc(Cl)ccc54)C3)C2)n1 [1-39]
< 100 nM			COc1nccnc1N1CC2(CN(C(=O)N3CCOc4cc(Cl)ccc43)C2)C1 [1-43]
< 100 nM			Cc1cc(F)nc(N2CC3(CN(C(=O)N4CCOc5cc(Cl)ccc54)C3)C2)c1 [1-45]
< 100 nM			O=C(N1CC2(C1)CN(c1ccc(F)c(F)n1)C2)N1CCOc2cc(Cl)ccc21 [1-49]
< 100 nM			O=C(N1CC2(C1)CN(c1cc(F)cc(F)n1)C2)N1CCOc2cc(Cl)ccc21 [1-51]
< 100 nM			N#Cc1ccnc(N2CC3(CN(C(=O)N4CCOc5cc(Cl)ccc54)C3)C2)c1 [1-53]
< 100 nM	> 20 ×10⁻⁶ cm/s	< 1	O=C(N1CC2(C1)CN(c1ccc(F)cn1)C2)N1CCOc2cc(F)ccc21 [1-64]
< 100 nM			COc1ccc(N2CC3(CN(C(=O)N4CCOc5cc(Cl)ccc54)C3)C2)nc1 [1-68]
< 100 nM			O=C(N1CC2(C1)CN(c1cccc(F)n1)C2)N1CCOc2cc(Cl)ccc21 [1-69]
< 100 nM	> 20 ×10⁻⁶ cm/s	1 to 2	O=C(N1CC2(C1)CN(c1cc(F)ccn1)C2)N1CCOc2cc(Cl)ccc21 [1-70]
< 100 nM	> 20 ×10⁻⁶ cm/s	< 1	O=C(N1CC2(C1)CN(c1cccnn1)C2)N1CCOc2cc(Cl)ccc21 [1-71]
< 100 nM	> 20 ×10⁻⁶ cm/s	< 1	O=C(N1CC2(C1)CN(c1cccnc1)C2)N1CCOc2cc(Cl)ccc21 [1-72]

Continued, compound first:

Compound	IC50 [1]	Papp A→B at 1 h, 10 μM [2]	efflux ratio at 1 h, 10 μM [2]
CC1COc2cc(Cl)ccc2N1C(=O)N1CC2(C1)CN(c1ncccc1F)C2 (single isomer, unassigned) [1-57-A]	< 100 nM		
CC1COc2cc(Cl)ccc2N1C(=O)N1CC2(C1)CN(c1cnccn1)C2 (single isomer, unassigned) [1-58-B]	< 100 nM	> 20 ×10⁻⁶ cm/s	1 to 2
CC1COc2cc(Cl)ccc2N1C(=O)N1CC2(C1)CN(c1ccccn1)C2 (single isomer, unassigned) [1-60-B]	< 100 nM	> 20 ×10⁻⁶ cm/s	< 1
CC1COc2cc(F)ccc2N1C(=O)N1CC2(C1)CN(c1cnccn1)C2 (single isomer, unassigned) [1-65-B]	< 100 nM	> 20 ×10⁻⁶ cm/s	1 to 2
CC1COc2cc(F)ccc2N1C(=O)N1CC2(C1)CN(c1ccccn1)C2 (single isomer, unassigned) [1-66-B]	< 100 nM		
CC1COc2cc(F)ccc2N1C(=O)N1CC2(C1)CN(c1ncccc1F)C2 (single isomer, unassigned) [1-67-A]	< 100 nM		
CC1COc2cc(Cl)ccc2N1C(=O)N1CC2(C1)CN(c1ncc(F)cn1)C2 (single isomer, unassigned) [18-2-B]		> 20 ×10⁻⁶ cm/s	< 1
Cc1cnc(N2CC3(CN(C(=O)N4c5ccc(Cl)cc5OCC4C)C3)C2)nc1 (single isomer, unassigned) [20-13-B]	< 100 nM	> 20 ×10⁻⁶ cm/s	< 1
CC1COc2cc(Cl)ccc2N1C(=O)N1CC2(C1)CN(c1cc(=O)n(C)cn1)C2 (single isomer, unassigned) [20-14-B]	< 100 nM		
CC1COc2cc(Cl)ccc2N1C(=O)N1CC2(C1)CN(c1nn(C)c3ncccc13)C2 (single isomer, unassigned) [20-15-B]	< 100 nM	> 20 ×10⁻⁶ cm/s	< 1
CC1COc2cc(Cl)ccc2N1C(=O)N1CC2(C1)CN(c1ccccn1)C2 (centres unmarked) [1-60]	< 100 nM	> 20 ×10⁻⁶ cm/s	< 1
CC1COc2cc(F)ccc2N1C(=O)N1CC2(C1)CN(c1ncccc1F)C2 (centres unmarked) [1-67]	< 100 nM		
CC1COc2cc(Cl)ccc2N1C(=O)N1CC2(C1)CN(c1noc3ccccc13)C2 (centres unmarked) [21-1, (6-(benzo[d]isoxazol-3-yl)-2,6-diazaspiro[3.3]heptan-2-yl)(7-chloro-3-methyl-2,3-dihydro-4H-benzo[b][1,4]oxazin-4-yl)methanone]	< 100 nM	10 to 20 ×10⁻⁶ cm/s	< 1
CC1COc2cc(Cl)ccc2N1C(=O)N1CC2(C1)CN(c1ncccc1C#N)C2 (centres unmarked) [21-2]	< 100 nM	> 20 ×10⁻⁶ cm/s	< 1
Cc1cncc(N2CC3(CN(C(=O)N4c5ccc(Cl)cc5OCC4C)C3)C2)n1 (centres unmarked) [21-3]	< 100 nM	> 20 ×10⁻⁶ cm/s	< 1
Cc1cnnc(N2CC3(CN(C(=O)N4c5ccc(Cl)cc5OCC4C)C3)C2)c1 (centres unmarked) [21-4]	< 100 nM	> 20 ×10⁻⁶ cm/s	1 to 2
CC1COc2cc(Cl)ccc2N1C(=O)N1CC2(C1)CN(c1ncncc1F)C2 (centres unmarked) [21-5]	< 100 nM	> 20 ×10⁻⁶ cm/s	1 to 2
CC1COc2cc(Cl)ccc2N1C(=O)N1CC2(C1)CN(c1ccncn1)C2 (centres unmarked) [21-6]	< 100 nM	> 20 ×10⁻⁶ cm/s	< 1
Cc1nccc(N2CC3(CN(C(=O)N4c5ccc(Cl)cc5OCC4C)C3)C2)n1 (centres unmarked) [21-8]	< 100 nM	> 20 ×10⁻⁶ cm/s	< 1
CCc1cnc(N2CC3(CN(C(=O)N4c5ccc(Cl)cc5OCC4C)C3)C2)nc1 (centres unmarked) [21-9]	< 100 nM		
CC1COc2cc(Cl)ccc2N1C(=O)N1CC2(C1)CN(c1nccc(C(F)(F)F)n1)C2 (centres unmarked) [21-10]	< 100 nM	10 to 20 ×10⁻⁶ cm/s	1 to 2
Cc1cc(N2CC3(CN(C(=O)N4c5ccc(Cl)cc5OCC4C)C3)C2)ncn1 (centres unmarked) [21-11]	< 100 nM		
